US20210045385A1, “PYRIDAZINONE-SUBSTITUTED KETOXIMES AS HERBICIDES” (FMC Corporation, priority 2018, published 2021)

Legend:
Assay type in all cases: in vivo
[1] = test system: Italian ryegrass (Lolium mutiflorum); experiment: Test C preemergence, visual plant response rating; conditions: Test C, 0 is no effect, 100 is complete control
Outline: (§1)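 Visual injury on a 0 (no effect) to 100 (complete control) scale versus untreated controls, scored approximately 10 d after treatment under greenhouse conditions. Treatments used surfactant-containing non-phytotoxic solvent formulations, sprayed onto loam–sand soil preemergence or onto one- to two-leaf plants 2–10 cm tall postemergence.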

[2] = test system: barnyardgrass (Echinochloa crus-galli); experiment: Test C preemergence, visual plant response rating; conditions: Test C, 0 is no effect, 100 is complete control
Outline: as §1

[3] = test system: foxtail, giant (giant foxtail, Setaria faberi); experiment: Test C preemergence, visual plant response rating; conditions: Test C, 0 is no effect, 100 is complete control
Outline: as §1

kochia (Bassia scoparia) [4] = experiment: Test C preemergence, visual plant response rating; conditions: Test C, 0 is no effect, 100 is complete control
Outline: as §1

[5] = test system: pigweed (Amaranthus retroflexus); experiment: Test C preemergence, visual plant response rating; conditions: Test C, 0 is no effect, 100 is complete control
Outline: as §1

[6] = test system: ragweed (common ragweed, Ambrosia artemisiifolia); experiment: Test C preemergence, visual plant response rating; conditions: Test C, 0 is no effect, 100 is complete control
Outline: as §1

[7] = test system: Italian ryegrass (Lolium mutiflorum); experiment: Test C postemergence, visual plant response rating
Outline: as §1

[8] = test system: barnyardgrass (Echinochloa crus-galli); experiment: Test C postemergence, visual plant response rating
Outline: as §1

[9] = test system: blackgrass (Alopecurus myosuroides); experiment: Test C postemergence, visual plant response rating
Outline: as §1

corn (Zea mays) = experiment: Test C postemergence, visual plant response rating
Outline: as §1

[10] = test system: foxtail, giant (giant foxtail, Setaria faberi); experiment: Test C postemergence, visual plant response rating
Outline: as §1

[11] = test system: galium (catchweed bedstraw, Galium aparine); experiment: Test C postemergence, visual plant response rating
Outline: as §1

kochia (Bassia scoparia) [12] = experiment: Test C postemergence, visual plant response rating
Outline: as §1

[13] = test system: pigweed (Amaranthus retroflexus); experiment: Test C postemergence, visual plant response rating
Outline: as §1

[14] = test system: ragweed (common ragweed, Ambrosia artemisiifolia); experiment: Test C postemergence, visual plant response rating
Outline: as §1

[15] = test system: wheat (Triticum aestivum); experiment: Test C postemergence, visual plant response rating
Outline: as §1

[16] = test system: barnyardgrass (Echinochloa crus-galli); experiment: Test D flooded paddy test, visual plant response rating; conditions: 250 g ai/ha, scale 0 to 100 (0 no effect, 100 complete control), 13 to 15 d
Outline: (§2)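 Rating is visual, on a 0 (no effect) to 100 (complete control) scale versus controls, taken 13 to 15 d after treatment in a greenhouse. Treatment went into paddy water kept 3 cm above the soil surface, with plants at the 2-leaf stage.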

[17] = test system: duck salad (Heteranthera limosa); experiment: as above; conditions: 250 g ai/ha, scale 0 to 100 (0 no effect, 100 complete control), 13 to 15 d
Outline: as §2

rice (Oryza sativa) = experiment: as above; conditions: 250 g ai/ha, scale 0 to 100 (0 no effect, 100 complete control), 13 to 15 d
Outline: as §2

[18] = test system: sedge umbrella (small-flower umbrella sedge, Cyperus difformis); experiment: as above; conditions: 250 g ai/ha, scale 0 to 100 (0 no effect, 100 complete control), 13 to 15 d
Outline: as §2

[19] = Test C, postemergence, 125 g ai/ha

Structure (SMILES)	Ryegrass, Italian plant response rating (0 to 100 scale) ([1]; 31 g ai/ha)	Ryegrass, Italian plant response rating (0 to 100 scale) ([1]; 125 g ai/ha)	Barnyardgrass plant response rating (0 to 100 scale) ([2]; 31 g ai/ha)	Barnyardgrass plant response rating (0 to 100 scale) ([2]; 125 g ai/ha)	Foxtail, Giant plant response rating (0 to 100 scale) ([3]; 31 g ai/ha)	Foxtail, Giant plant response rating (0 to 100 scale) ([3]; 125 g ai/ha)	Kochia plant response rating (0 to 100 scale) (kochia (Bassia scoparia) [4]; 31 g ai/ha)	Kochia plant response rating (0 to 100 scale) (kochia (Bassia scoparia) [4]; 125 g ai/ha)	Pigweed plant response rating (0 to 100 scale) ([5]; 31 g ai/ha)	Pigweed plant response rating (0 to 100 scale) ([5]; 125 g ai/ha)	Ragweed plant response rating (0 to 100 scale) ([6]; 31 g ai/ha)	Ragweed plant response rating (0 to 100 scale) ([6]; 125 g ai/ha)	Ryegrass, Italian plant response rating (0 to 100 scale) ([7]; Postemergence, 31 g ai/ha)	Ryegrass, Italian plant response rating (0 to 100 scale) [7, 19]	Barnyardgrass plant response rating (0 to 100 scale) ([8]; Postemergence, 31 g ai/ha)	Barnyardgrass plant response rating (0 to 100 scale) [8, 19]	Blackgrass plant response rating (0 to 100 scale) ([9]; Postemergence, 31 g ai/ha)	Blackgrass plant response rating (0 to 100 scale) [9, 19]	Corn plant response rating (0 to 100 scale) (corn (Zea mays); Postemergence, 31 g ai/ha)	Corn plant response rating (0 to 100 scale) (corn (Zea mays); [19])	other results
C#CCO/N=C(\c1cccc(/C=C\Cl)c1)c1c(O)c(C)nn(C)c1=O [Compound 264]	0	90	0	0	0	20	0	0	0	30	0	30	0	70	10	50	30	60	10	0	Foxtail, Giant plant response rating (0 to 100 scale) ([10]; Postemergence, 31 g ai/ha): 10; Foxtail, Giant plant response rating (0 to 100 scale) [10, 19]: 60; Galium plant response rating (0 to 100 scale) ([11]; Postemergence, 31 g ai/ha): 50; Galium plant response rating (0 to 100 scale) [11, 19]: 70; Kochia plant response rating (0 to 100 scale) (kochia (Bassia scoparia) [12]; Postemergence, 31 g ai/ha): 40; Kochia plant response rating (0 to 100 scale) (kochia (Bassia scoparia) [12]; [19]): 70; Pigweed plant response rating (0 to 100 scale) ([13]; Postemergence, 31 g ai/ha): 40; Pigweed plant response rating (0 to 100 scale) [13, 19]: 60; Ragweed plant response rating (0 to 100 scale) ([14]; Postemergence, 31 g ai/ha): 40; Ragweed plant response rating (0 to 100 scale) [14, 19]: 60; Wheat plant response rating (0 to 100 scale) ([15]; Postemergence, 31 g ai/ha): 20; Wheat plant response rating (0 to 100 scale) [15, 19]: 50; Plant response rating, Barnyardgrass (Flood) [16]: 0; Plant response rating, Ducksalad (Flood) [17]: 0; Plant response rating, Rice (Flood) (rice (Oryza sativa)): 0; Plant response rating, Sedge, Umbrella (Flood) [18]: 0
C#CCON=C(c1cccc(OC)c1)c1c(O)c(C)nn(C)c1=O [Compound 203]	0	0	0	0	0	10	0	0	0	0	0	0	30	30	0	20	0	0	0	0	Foxtail, Giant plant response rating (0 to 100 scale) ([10]; Postemergence, 31 g ai/ha): 0; Foxtail, Giant plant response rating (0 to 100 scale) [10, 19]: 30; Galium plant response rating (0 to 100 scale) ([11]; Postemergence, 31 g ai/ha): 30; Galium plant response rating (0 to 100 scale) [11, 19]: 30; Kochia plant response rating (0 to 100 scale) (kochia (Bassia scoparia) [12]; Postemergence, 31 g ai/ha): 20; Kochia plant response rating (0 to 100 scale) (kochia (Bassia scoparia) [12]; [19]): 50; Pigweed plant response rating (0 to 100 scale) ([13]; Postemergence, 31 g ai/ha): 10; Pigweed plant response rating (0 to 100 scale) [13, 19]: 20; Ragweed plant response rating (0 to 100 scale) ([14]; Postemergence, 31 g ai/ha): 0; Ragweed plant response rating (0 to 100 scale) [14, 19]: 10; Wheat plant response rating (0 to 100 scale) ([15]; Postemergence, 31 g ai/ha): 0; Wheat plant response rating (0 to 100 scale) [15, 19]: 0; Plant response rating, Barnyardgrass (Flood) [16]: 0; Plant response rating, Ducksalad (Flood) [17]: 0; Plant response rating, Rice (Flood) (rice (Oryza sativa)): 0; Plant response rating, Sedge, Umbrella (Flood) [18]: 0
Cc1nn(C)c(=O)c(/C(=N/OCCO)c2cccc3cc(Cl)ccc23)c1O [Compound 240]	0	0	0	0	10	80	0	0	50	100	0	10	0	0	0	20	0	10	0	0	Foxtail, Giant plant response rating (0 to 100 scale) ([10]; Postemergence, 31 g ai/ha): 0; Foxtail, Giant plant response rating (0 to 100 scale) [10, 19]: 0; Galium plant response rating (0 to 100 scale) ([11]; Postemergence, 31 g ai/ha): 20; Galium plant response rating (0 to 100 scale) [11, 19]: 50; Kochia plant response rating (0 to 100 scale) (kochia (Bassia scoparia) [12]; Postemergence, 31 g ai/ha): 0; Kochia plant response rating (0 to 100 scale) (kochia (Bassia scoparia) [12]; [19]): 0; Pigweed plant response rating (0 to 100 scale) ([13]; Postemergence, 31 g ai/ha): 70; Pigweed plant response rating (0 to 100 scale) [13, 19]: 80; Ragweed plant response rating (0 to 100 scale) ([14]; Postemergence, 31 g ai/ha): 0; Ragweed plant response rating (0 to 100 scale) [14, 19]: 0; Wheat plant response rating (0 to 100 scale) ([15]; Postemergence, 31 g ai/ha): 0; Wheat plant response rating (0 to 100 scale) [15, 19]: 0; Plant response rating, Barnyardgrass (Flood) [16]: 15; Plant response rating, Ducksalad (Flood) [17]: 0; Plant response rating, Rice (Flood) (rice (Oryza sativa)): 0; Plant response rating, Sedge, Umbrella (Flood) [18]: 0
C#CCO/N=C(/c1c(O)c(C)nn(C)c1=O)c1cc(Cl)cc2ccccc12 [Compound 192]	10	70	30	90	60	90	0	20	40	100	30	70	20	70	80	90	40	70	20	30	Foxtail, Giant plant response rating (0 to 100 scale) ([10]; Postemergence, 31 g ai/ha): 70; Foxtail, Giant plant response rating (0 to 100 scale) [10, 19]: 80; Galium plant response rating (0 to 100 scale) ([11]; Postemergence, 31 g ai/ha): 80; Galium plant response rating (0 to 100 scale) [11, 19]: 100; Kochia plant response rating (0 to 100 scale) (kochia (Bassia scoparia) [12]; Postemergence, 31 g ai/ha): 30; Kochia plant response rating (0 to 100 scale) (kochia (Bassia scoparia) [12]; [19]): 60; Pigweed plant response rating (0 to 100 scale) ([13]; Postemergence, 31 g ai/ha): 50; Pigweed plant response rating (0 to 100 scale) [13, 19]: 80; Ragweed plant response rating (0 to 100 scale) ([14]; Postemergence, 31 g ai/ha): 80; Ragweed plant response rating (0 to 100 scale) [14, 19]: 90; Wheat plant response rating (0 to 100 scale) ([15]; Postemergence, 31 g ai/ha): 0; Wheat plant response rating (0 to 100 scale) [15, 19]: 50; Plant response rating, Barnyardgrass (Flood) [16]: 50; Plant response rating, Ducksalad (Flood) [17]: 70; Plant response rating, Rice (Flood) (rice (Oryza sativa)): 0; Plant response rating, Sedge, Umbrella (Flood) [18]: 70
